Laboratory results as given in US5283343A, “2-aryl substituted N-acetyltryptamines and process of preparing such” (priority 1991, dated 1994).
Entries after “also recorded” stand apart in the source; their conditions may differ.

Legend:
[1] = Behavioral despair (forced swimming) test for antidepressants, albino Swiss ND/4 mice; format: in vivo, mouse (male albino Swiss ND/4); conditions: for Duration of Immobility: albino Swiss ND/4 mice, 30 mg/kg; for change in time of immobility (in words): albino Swiss mice, noon or midnight
Text: (§1) Methods: Typical and atypical antidepressants reduce the time during which mice are immobile in a forced swimming test. [Porsolt et al., Arch. Int. Pharmacodun. Ther. 229:327-336 (1977)]. This test, known as the behavioral despair test, appears to be a good predictor of clinical antidepressant activity.
(§2) Male albino Swiss ND/4 mice and C3H/HeN mice (4 to 5 weeks old) were purchased from Harlam Sprague Dawley (Indianapolis, Ind.). […] The animals were kept in the same facilities at least two weeks before the experiment to allow them to adapt to a 14/10 hour light/dark cycle (lights on at 4 a.m./off at 6 p.m.).
(§3) Mice were housed in groups of 10 in polycarbonate plastic cages 137/8×85/8×51/8 inches with 88 square inches of floor space) with free access to feed (Agway 3000 rat, mouse and hamster feed) and water. During the light period, light intensity at the level of the cages was about 250 lux. The room temperature was kept constant at 22±1° C. The present series of experiments were conducted between October, 1986 and January, 1987.
(§4) The day of the experiment, mice were weighed, marked on the tail and placed in cages (8 mice per cage) as described above. Animals were transferred to the laboratory where the swim test was to be conducted at 10:00 a.m. for noon experiments and at 5:00 p.m. for evening experiments. For noon experiments, the swim test was started at 12:00 h and for midnight experiments, the swim test was started at 24:00 h. Two mice obtained from different experimental groups were tested simultaneously.
(§5) Apparatus: The apparatus consisted of two glass beakers (height: 13 cm; diameter: 11.5 cm), each placed inside a bigger glass beaker (height: 20 cm; diameter: 12.4 cm) containing 6 cm of water at 23±1° C. A non-transparent panel placed between the two cylinders prevented the mice from seeing each other. At midnight, experiments were conducted under red dim light (Kodak, filter A) provided by two photographic safety lights located at each side of the beakers.
(§6) Drugs: Mice were injected with vehicle or drugs dissolved in vehicle dissolved at the appropriate concentrations. Each mouse received 0.1 ml of liquid/10 g body weight. Drugs were dissolved immediately before the experiment. Desipramine was obtained from Sigma (St. Louis, Mo.) and dissolved in water. […] Bright light was administered with a fluorescent lamp placed one foot above the mice.
(§7) Methods The swim test was conducted as described by Porsolt et al. [Arch. Int. Pharmacodyn. 229:327-336 (1977)]. Forced swim in a narrow cylinder induced a depressed state characterized by an immobile posture, which is readily identifiable. A mouse is considered to be immobile when it ceases struggling and remains floating motionless in the water, making only those movements necessary to keep its head above water. […] Two mice that had received different treatments were observed simultaneously. Mice were dropped into the cylinders and left in the water for 6 minutes. The time of immobility was recorded during the last 4 minutes of swimming.

[2] = Behavioral despair (forced swimming) test for antidepressants, C3H/HeN mice; format: in vivo, mouse (C3H/HeN)
Text: as §1, §2, §3, §4, §5, §6, §7

melatonin receptor [3] = target: T1, melatonin receptor (Oryctolagus cuniculus, UniProt G1SUP2); assay: Melatonin receptor assay: calcium-dependent/stimulation-evoked release of 3H-dopamine from rabbit retina (Dubocovich assay); format: biochemical; conditions: for effect on melatonin concentration-response curves / melatonin-induced inhibition of calcium-dependent 3H-DA release: compound present during S1 and S2, 0.1, 1 or 10 μM, FIGS. 3a, 3b
T1 sequence (G1SUP2 1-362): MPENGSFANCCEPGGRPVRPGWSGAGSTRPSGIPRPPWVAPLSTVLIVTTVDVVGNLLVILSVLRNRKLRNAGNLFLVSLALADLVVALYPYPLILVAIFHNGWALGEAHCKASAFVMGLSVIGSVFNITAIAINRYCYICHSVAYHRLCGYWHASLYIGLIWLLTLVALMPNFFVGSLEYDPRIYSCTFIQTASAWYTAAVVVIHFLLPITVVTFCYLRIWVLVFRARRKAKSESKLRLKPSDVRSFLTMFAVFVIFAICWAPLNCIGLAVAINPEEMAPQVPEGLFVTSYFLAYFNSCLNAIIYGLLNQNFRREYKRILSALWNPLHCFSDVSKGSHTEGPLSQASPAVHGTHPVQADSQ
Protocol: Briefly, dopamine release was elicited in vitro by electrical field stimulation (3 Hz, 1 min. 20 mA, […].) of rabbit retinal pieces which had been prelabeled with ^3 H-dopamine. Release was determined as the percentage of total tissue radioactivity that was released during stimulation(s) minus the spontaneous release level determined before and after stimulation. Two periods of stimulation (S1 and S2) were applied 40 minutes apart in each experiment. Results are expressed as the ratio of release in S2 to release in S1 (FIG. 1.).
Drugs are added 20 minutes before the second stimulation to test their effect on the spontaneous and stimulation evoked release of ^3 H-dopamine.
First, the compounds (antagonists) were tested alone to determine their effect on spontaneous and stimulated release of dopamine (FIG. 2a.).
The compound of Example A was present during both S1 and S2 at a concentration of 0.1 μM, 1 μM, or 10 μM. Control is .largecircle..

melatonin receptor [4] = target: T1, melatonin receptor; conditions: in vitro, Dubocovich literature; cited from earlier work
melatonin receptor [5] = conditions: rabbit or chicken retina, Dubocovich 1985; cited from earlier work
[6] = C3H/HeN mice, 3.00 mg/kg, midnight, control 67.7 ± 2.15
[7] = C3H/HeN mice, 3.00 mg/kg, noon, control 47.7 ± 3.4
[8] = C3H/HeN mice, 10.00 mg/kg, midnight, control 67.7 ± 2.15
[9] = C3H/HeN mice, 10.00 mg/kg, noon, control 47.7 ± 3.4
[10] = C3H/HeN mice, .03 mg/kg, midnight, control 67.7 ± 2.15
[11] = C3H/HeN mice, .03 mg/kg, noon, control 47.7 ± 3.4
[12] = C3H/HeN mice, noon and midnight

CNCCCN1c2ccccc2CCc2ccccc21 [Desipramine]
Duration of Immobility ([1]; midnight, control 84.3 ± 11.2): 46.0 ± 1.3 s
Duration of Immobility ([1]; noon, control 72.4 ± 4.9): 38.2 ± 5.1 s
change in time of immobility (in words) [1]: same decrease in time of immobility in the behavioral despair test at noon and at midnight
Duration of Immobility [2, 6]: 16.1 ± 6.0 s
Duration of Immobility [2, 7]: 20.7 ± 3.7 s
Duration of Immobility [2, 8]: 13.2 ± 7.2 s
Duration of Immobility [2, 9]: 20.7 ± 2.0 s
Duration of Immobility [2, 10]: 33.2 ± 7.3 s
Duration of Immobility [2, 11]: 46.2 ± 12.9 s
change in time of immobility (in words) [2, 12]: more potent to reduce the time of immobility at midnight than at noon

CC(=O)NCCc1c(Cc2ccccc2)[nH]c2ccccc12 [Example N-0774, 2-benzyl-N-acetyl tryptamine]
estimated KB (affinity constant from the Schild plot) (melatonin receptor [3]; antagonist against melatonin, rabbit retina, antagonist 0.1, 1 or 10 μM in S1 and S2): 20 µM
direct effect on spontaneous dopamine release (Sp2/Sp1) (melatonin receptor [3]; compound alone, 0.1-10 μM, FIG. 2a, listed as Example A): little or no direct effects; also recorded: did not modify the control ratio Sp2 /Sp1
direct effect on stimulated (calcium-dependent) dopamine release (S2/S1) (melatonin receptor [3]; compound alone, 0.1-10 μM, FIG. 2b, listed as Example A): little or no direct effects; also recorded: did not modify the control ratio
effect on melatonin concentration-response curves / melatonin-induced inhibition of calcium-dependent 3H-DA release (melatonin receptor [3]; listed as Example A): shifted in parallel to the right
effect on melatonin concentration-response curves / melatonin-induced inhibition of calcium-dependent 3H-DA release (melatonin receptor [3]; listed as Luzindole (N-0774)): antagonization of melatonin-induced inhibition
activity at melatonin receptors (conclusion) (melatonin receptor [3]; rabbit retina): potent, competitive antagonist at melatonin receptors
Duration of Immobility ([1]; midnight, control 84.3 ± 11.2): 81.4 ± 3.9 s
Duration of Immobility ([1]; noon, control 72.4 ± 4.9): 57.4 ± 8.9 s
change in time of immobility (in words) [1]: neither melatonin nor the melatonin receptor antagonist N-0074 modified the time of immobility
Duration of Immobility [2, 6]: 16.1 ± 5.2 s
Duration of Immobility [2, 7]: 37.4 ± 6.6 s
Duration of Immobility [2, 8]: 13.1 ± 3.6 s
Duration of Immobility [2, 9]: 52.1 ± 6.8 s
Duration of Immobility [2, 10]: 47.7 ± 4.7 s
Duration of Immobility [2, 11]: 53.8 ± 8.8 s
change in time of immobility (in words) [2, 12]: reduces the time of immobility in a dose-dependent fashion, the effect being more pronounced at midnight than at noon
Duration of Immobility ([2]; Table 4, 10 mg/kg, midnight, control 67.7 ± 2.15, strain not given): 16.1 ± 5.20 s
change in time of immobility (in words) ([2]; midnight, compared with bright light): decreases the time of immobility

COc1ccc2[nH]cc(CCNC(C)=O)c2c1 [Melatonin, 5-methoxy-N-acetyl tryptamine]
inhibition of calcium-dependent release of 3H dopamine from rabbit retina (melatonin receptor [4]): inhibit dopamine release; also recorded: picomolar concentrations
change in time of immobility (in words) [1]: neither melatonin nor the melatonin receptor antagonist N-0074 modified the time of immobility
Duration of Immobility ([2]; C3H/HeN mice, 30 mg/kg, Noon (In-Darkness Administration), control 29.5 ± 3.34): 48.2 ± 5.02 s
Duration of Immobility ([2]; C3H/HeN mice, 30.00 mg/kg, midnight, control 67.7 ± 2.15): 57.9 ± 9.0 s
Duration of Immobility ([2]; C3H/HeN mice, 30.00 mg/kg, noon, control 47.7 ± 3.4): 45.9 ± 18.0 s
change in time of immobility (in words) [2, 12]: did not change the time of immobility
change in time of immobility (in words) ([2]; C3H/HeN mice, noon, in-darkness administration): increased the time of immobility

CC(=O)NCCc1c[nH]c2ccccc12 [N-acetyl tryptamine]
melatonin receptor antagonist property (melatonin receptor [5]): melatonin receptor antagonist
